How the values were obtained:
[1] = log P by shake-flask method; type: physicochemical; settings: shake-flask n-octanol/distilled water, mutually pre-saturated; 25 °C, 24 h, 50 rpm; HPLC of INS in both phases; HIP complexes at INS:counterion 1:6; mean, n = 3
Method: The log P values of different HIP complexes were determined by the shake-flask method (Zhang et al., [2021]). Prior to the experiment, distilled water and n-octanol were poured into a separatory funnel, vigorously shaken, and then allowed to settle for 24 h to mutually saturate. Stock solutions of HIP complexes in the saturated n-octanol were prepared and mixed with pre-saturated distilled water at a 1:10 (vol/vol) ratio. INS was dissolved in saturated distilled water and then mixed with pre-saturated n-octanol. The tube was incubated at 25 °C for 24 h with continuous shaking (50 rpm) and allowed to separate for 1 h, after which it was centrifuged at 16,000g for 10 min. Afterward, samples from both phases were carefully analyzed by HPLC.

[2] = target: T1, pepsin (Sus scrofa, UniProt P00791); experiment: Stability against GI enzymes in simulated gastric fluid (SGF); type: in vitro ADME; settings: SGF: pepsin 2,000 U/mL in pH 1.2 solution, mixed 1:1 with sample (INS 0.2 mg/mL), 37 °C, 100 rpm, HPLC, n = 3
T1 construct: purchased Sigma–Aldrich Chemical Co. (St. Louis, MO, USA)
Method: Simulated gastric fluid (SGF) was prepared by adding pepsin to pH 1.2 solution to a concentration of 2,000 U/mL. Simulated intestinal fluid (SIF) was prepared by adding trypsin (5,000 BAEE U/mL), chymotrypsin (20 IU/mL), lipase (400 IU/mL), and bile salt (10 mM) to the Tris buffer (50 mM, pH 8.0). […] Then, 250 µL of either SGF or SIF was added to the 250 µL of each formulation for enzymatic degradation. The mixture was transferred to a shaking incubator (SI-900R; JeioTech, Daejeon, Korea) and incubated at 37 °C under shaking (100 rpm). Finally, […] of cooled 0.1% TFA in methanol was added at predetermined time points (0, 5, 15, 30, 60, and 120 min) to quench the enzymatic reaction. For intestinal enzyme study, the reaction was continued for 240 min. Finally, the amount of INS remaining in the obtained samples was quantified by HPLC, as described earlier.

[3] = tested on: trypsin, chymotrypsin, lipase, bile salt; experiment: Stability against GI enzymes in simulated intestinal fluid (SIF); type: in vitro ADME; settings: SIF: trypsin 5,000 BAEE U/mL, chymotrypsin 20 IU/mL, lipase 400 IU/mL, bile salt 10 mM, Tris 50 mM pH 8.0; mixed 1:1 with sample (INS 0.2 mg/mL); 37 °C, 100 rpm; 0–240 min; HPLC; first-order fit; n = 3
Method: Simulated intestinal fluid (SIF) was prepared by adding trypsin (5,000 BAEE U/mL), chymotrypsin (20 IU/mL), lipase (400 IU/mL), and bile salt (10 mM) to the Tris buffer (50 mM, pH 8.0). […] Then, 250 µL of either SGF or SIF was added to the 250 µL of each formulation for enzymatic degradation. The mixture was transferred to a shaking incubator (SI-900R; JeioTech, Daejeon, Korea) and incubated at 37 °C under shaking (100 rpm). Finally, 500 mL of cooled 0.1% TFA in methanol was added at predetermined time points (0, 5, 15, 30, 60, and 120 min) to quench the enzymatic reaction. For intestinal enzyme study, the reaction was continued for 240 min.

[4] = tested on: streptozotocin-induced diabetic Sprague–Dawley rats; experiment: Pharmacodynamic study in diabetic rats (blood glucose level); type: in vivo, rat; settings: for AAC0–8h (area above the blood glucose level curve, % of initial, 0–8 h) / BGLmin (minimum blood glucose level, % of initial levels) / Tmin (time to reach BGLmin): mean ± SD, n = 5–7
Method: To establish animal models of type 1 diabetes mellitus, male Sprague–Dawley rats were injected intraperitoneally with freshly prepared single doses of streptozotocin (60 mg/kg) dissolved in citrate buffer (0.1 M, pH 4.5). The successful induction of diabetes was corroborated by an increase in blood glucose levels after five days. Only the rats with fasting blood glucose levels higher than 250 mg/dL were considered diabetic.
All rats were fasted for 12 h before the experiment, with free access to water. […] Subsequently, blood samples were collected from the tail vein at different time intervals (0, 0.5, 1, 1.5, 2, 3, 4, 5, 6, and 8 h) and tested using a glucometer (GreenDoctor, GREENCROSS MEDIS Co., Chungnam, Korea). Based on the blood glucose level at 0 h (initial), each blood glucose level was converted to the relative level (% of initial). A value of 100% of the relative level was chosen as a reference point (upper limit) for the determination of the area above the blood glucose (% of initial)–time curve (AAC) values for decreased blood glucose levels.

T1 sequence (P00791 60-385): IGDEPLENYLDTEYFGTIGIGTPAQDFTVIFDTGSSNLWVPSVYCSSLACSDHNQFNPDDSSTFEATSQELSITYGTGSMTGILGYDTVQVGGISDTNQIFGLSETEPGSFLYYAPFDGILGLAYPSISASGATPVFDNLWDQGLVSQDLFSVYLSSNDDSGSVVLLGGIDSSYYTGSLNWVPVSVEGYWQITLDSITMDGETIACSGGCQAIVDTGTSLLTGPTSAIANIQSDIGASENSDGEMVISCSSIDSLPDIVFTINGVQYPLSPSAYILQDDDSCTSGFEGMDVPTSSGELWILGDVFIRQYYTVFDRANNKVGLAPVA

Substance: Insulin
- log P [1]: –1.61
- Rate constant of INS degradation, simulated gastric fluid ([2]; 0–120 min, first-order fit): 0.1854 min⁻¹
- Half-life of INS, simulated gastric fluid [2]: 3.74 min
- Rate constant of INS degradation, simulated intestinal fluid [3]: 0.1980 min⁻¹
- AAC0–8h (area above the blood glucose level curve, % of initial, 0–8 h) ([4]; SC injection, 5 IU/kg): 439.29 ± 30.00 %·h
- BGLmin (minimum blood glucose level, % of initial levels) ([4]; SC injection, 5 IU/kg): 22.78 ± 1.92%
- Tmin (time to reach BGLmin) ([4]; SC injection, 5 IU/kg): 3.20 ± 0.84 h
- AAC0–8h (area above the blood glucose level curve, % of initial, 0–8 h) ([4]; oral gavage, 50 IU/kg): –44.47 ± 38.33 %·h
- BGLmin (minimum blood glucose level, % of initial levels) ([4]; oral gavage, 50 IU/kg): 97.92 ± 1.23%
- Tmin (time to reach BGLmin) ([4]; oral gavage, 50 IU/kg): 2.75 ± 0.25 h
- antidiabetic effects (blood glucose level versus time) ([4]; oral, 50 IU/kg): negligible

Source: article PMC9448375 (Drug Delivery, 2022)
